Columns and labels:
Lac3 = settings: 100 mM acetate, 2.5 mM copper sulfate, O2; listed optimum pH 4.6, 60 °C
Lac1 = settings: 100 mM acetate, 2.5 mM copper sulfate, O2; listed optimum pH 5.0, 55 °C
Lac5 = settings: 100 mM acetate, 2.5 mM copper sulfate, O2; listed optimum pH 4.0, 50 °C
Lac9 = settings: 100 mM acetate, 2.5 mM copper sulfate, O2; listed optimum pH 4.8, 55 °C
Lac5-6 = system: T1, Lac5-6; settings: 100 mM acetate, 2.5 mM copper sulfate, O2; listed optimum pH 4.0, 55 °C
T1 construct: gene Lac5 (GenBank PP987286)

Lac4 = settings: 100 mM acetate, 2.5 mM copper sulfate, O2; listed optimum pH 4.0, 55 °C

`CCn1c(=NN=c2sc3cc(S(=O)(=O)O)ccc3n2CC)sc2cc(S(=O)(=O)O)ccc21` [ABTS, 2,2′‐azinobis(3‑ethylbenzo‐6‑thiazolinesulfonic acid)] gave a Km (Lac3) of 99 µM, a Km (Lac1) of 112 µM and a Km (Lac5) of 63 µM. For the same compound, the Km (Lac9) was 101 µM, the Km (Lac5-6) was 55 µM and the Km (Lac4) was 426 µM.
